Assay results from PMC8750527 (Cancers, 2021).

Legend:
C8-D1A = assay: MTT assay, 48 h exposure, murine primary astrocytes; format: cell-based; settings: Table 3, mean ± SEM
Procedure: (§1) HDF (3000 cells), C8-D1A (5000 cells), D458 (5000 cells), DAOY (2000 cells), HD-MB03 (10,000 cells) and CHLA-01-Med (10,000 cells) were seeded at an approximate confluency of 50% in 96-well plates (Corning Inc., Corning, NY, USA) in 100 µL medium per well. A range from 50 nM to 150 µM of every drug was tested. The effects of the antiangiogenic compounds were measured using a 3-[4,5-dimethylthiazol-2yl]-diphenyltetrazolium bromide (MTT) colorimetric assay (Sigma, Lyon, France) according to the manufacturer’s instructions. When applicable, IC50 was calculated using the nonlinear regression method of the Prism 5 software (Graphpad Software Inc., San Diego, CA, USA). […] An MTT assay was conducted as described above to assess the fitness of the cells.

DAOY [1] = assay: MTT assay, 48 h exposure, DAOY MB cells; format: cell-based, human; settings: Table 3, MTT, 48 h exposure, mean ± SEM
Procedure: as §1

HD-MB03 [2] = assay: MTT assay, 48 h exposure, HD-MB03 MB cells; format: cell-based, human; settings: Table 3, MTT, 48 h exposure, mean ± SEM
Procedure: as §1

D458 = assay: MTT assay, 48 h exposure, D458 MB cells; format: cell-based, human; settings: Table 3, MTT, 48 h exposure, mean ± SEM
Procedure: as §1

MB cells = assay: Proliferation index assay, MB cells; format: cell-based, human; settings: after 120 h; axitinib 5 µM, etoposide 1 µM
Procedure: DAOY, D458, D283, C8-D1A and HDF (30,000 cells per well) and HD-MB03 (50,000 cells per well) were seeded in 24-well plates for proliferation assays.

DAOY [3] = assay: Cumulative population doubling (CPD), DAOY; format: cell-based, human; settings: continuous treatment; axitinib 5 µM, etoposide 1 µM
Procedure: (§2) Cumulative population doubling (CPD) was assessed as previously described. Briefly, depending on the cell line, a variable number of cells corresponding to about 30% confluency were seeded in triplicate in 60 mm diameter Petri dishes. […] The cells were harvested when the confluency reached about 90%, counted and plated again at a dilution of 1/20. CPD was calculated as previously described.

HD-MB03 [4] = assay: Cumulative population doubling (CPD), HD-MB03; format: cell-based, human; settings: continuous treatment; axitinib 5 µM, etoposide 1 µM
Procedure: as §2

[5] = tested on: C8-D1A/HD-MB03 mixed spheroids; assay: 3D mixed spheroids of astrocytes and MB cells; format: cell-based; settings: 7 days; axitinib 5 µM or etoposide 1 µM
Procedure: C8-D1A cells were stained with the green fluorescent probe neuro-DiO (cat. number 60015, Biotium, Fremont, CA, USA) according to the manufacturer’s protocol. C8-D1A-neuroDio cells (150,000) and HD-MB03-mCherry or DAOY-mCherry cells (50,000) were plated in 12-well plates. […] Fluorescence images of the cells were taken with a DMI400 inverted microscope (Leica Microsystemes SAS, Nanterre, France) equipped with a 40× objective and a Zyla 5.5 camera (Andor Technologies, Belfast, UK). The cells were then trypsinized and the number of both cell types was quantified using a Melody FACS (BD Biosciences, Frankton Lake, NJ, USA) with a 488 nm laser beam. Analysis of the FACS data was conducted with the Flowjo software (Tree Star Inc., Ashland, OR, USA).
Two thousand cells were seeded in ultralow-adhesion 96-well plates (Corning Inc., Corning, NY, USA). […] Pictures were taken with an AMG Evos microscope 40× objective (Thermo Fisher Scientific Inc, Waltham, MA, USA) and the spheroid areas were measured using the ImageJ software (NIH, Bethesda, MD, USA).

[6] = tested on: HD-MB03 intracranial tumors
Procedure: HD-MB03-Luc spheroids were stereotaxically implanted into the brains of 9-week-old Rj:NMRI-Foxn1 nude (nu/nu) female mice (Janvier Labs, Le Genest-Saint-Isle, France). Briefly, MB spheroids were generated with 2500 cells grown for 48 h in ultralow-adhesion spheroid 96-well plates (Corning, Corning, NY, USA) and three spheroids per mouse were implanted into the left cerebellar hemisphere (2 mm posterior, 1.5 mm left of the lambda point and 2.5 mm deep) using a Hamilton syringe fitted with a needle (Hamilton, Bonaduz, Switzerland) and following the procedure already described. […] Oral gavage with a vehicle solution was used as the control. Mouse survival was based on the presence of neuropathological symptoms including gait defects and a loss of weight over 10% as endpoints. A minimum of five mice per group was chosen to yield sufficient statistical power (p < 0.05, one-way ANOVA). These experiments were carried out in strict accordance with the recommendations in the Guide for the Care and Use of Laboratory Animals. Our experiments were approved by Direction de l’Action Sanitaire et Sociale of the Principality of Monaco and the ethics committee of Centre Scientifique de Monaco.
(§3) Tumor samples were recovered from the animals and embedded in the OCT compound according to the manufacturer’s protocol (Thermo Fisher Scientific Inc., Waltham, MA, USA). After that, 5 µm thin sections were prepared with a cryostat (Leica Microsystems, Wetzlar, Germany). Incubation was carried out with the following antibodies diluted at 1:1000 in TBS supplemented with 1% horse serum and 1% BSA for 20 min at room temperature: anti-Ki67 (cat. number ab16667, Abcam, Cambridge, UK), anti-CD31 (cat. number 550274, BD Biosciences, Frankton Lake, NJ, USA) or anti-αSMA (cat. number A2547, Merck Millipore, Burlington, MA, USA). The preparations were then washed with TBS–0.025% Triton, incubated with anti-rabbit Alexa488 and anti-mouse Alex-555-coupled secondary antibodies (Cell Signaling Technology, Danvers, MA, USA), washed with TBS–0.025% Triton, and the nuclei were counterstained with Hoechst33342 (Thermo Fisher Scientific, Waltham, MA, USA). Fluorescence images of the cells were taken with a DMI400 inverted microscope equipped with a 40× objective (Leica Microsystemes, Nanterre, France) and a Zyla 5.5 camera (Andor Technologies, Belfast, UK) powered by the Micromanager software. At least one cross-section of nonoverlapping images of each tumor was acquired. All the images were then quantified with the CellProfiler 3.0 software.

[7] = tested on: subcutaneous HD-MB03 tumors; assay: Subcutaneous HD-MB03 xenografts; format: in vivo, mouse; settings: oral, thrice a week
Procedure: For subcutaneous xenograft experiments, tumor cells expressing the luciferase (350,000 HDMB-Luc cells and 1.10^6 DAOY-Luc cells) were resuspended in 200 µL of 5 µg/mL Matrigel (Corning Inc., Corning, NY, USA) and injected subcutaneously in the flank of 5-week-old Rj:NMRI-Foxn1 nude (nu/nu) female mice (Janvier Labs, Le Genest-Saint-Isle, France). Saline solution (NaCl 0.9M; 100 µL) containing 30 mg/mL D-Luciferin (Perkin Elmer, Wellesley, MA, USA) was injected intraperitoneally in the animals and the bioluminescence was quantified using an In Vivo Imaging System (Perkin Elmer, Wellesley, MA, USA) according to the manufacturer’s instructions. Tumor volume (V = L × l2 × 0.52) was determined with a caliper and the endpoint was determined as a tumor volume of 1000 mm^3. […] The mice were sacrificed when the tumor reached 1000 mm^3. […] No statistical methods were used to predetermine the sample size of the experiments. Animal facility availability and cost were used to determine sample sizes. Two independent cohorts of five mice per group were used for the tumor growth experiment with HD-MB03 cells and one cohort of five mice per group was used for the experiment with DAOY cells. Animal experiments were carried out in strict accordance with the recommendations in the Guide for the Care and Use of Laboratory Animals. Our experiments were approved by Direction de l’Action Sanitaire et Sociale of the Principality of Monaco and the ethics committee of Centre Scientifique de Monaco.
(§4) The growth rate of the tumors generated with HD-MB03 cells was determined using a linear regression method applied to the growth curves between the sizes of 400 mm^3 up to the endpoint using Prism 5 (Graphpad Software Inc., San Diego, CA, USA).
as §3

subcutaneous DAOY tumors = settings: oral, thrice a week; axitinib 50 mg/kg, etoposide 30 mg/kg, combination 25 + 15 mg/kg
Procedure: For subcutaneous xenograft experiments, tumor cells expressing the luciferase (350,000 HDMB-Luc cells and 1.10^6 DAOY-Luc cells) were resuspended in 200 µL of 5 µg/mL Matrigel (Corning Inc., Corning, NY, USA) and injected subcutaneously in the flank of 5-week-old Rj:NMRI-Foxn1 nude (nu/nu) female mice (Janvier Labs, Le Genest-Saint-Isle, France). Saline solution (NaCl 0.9M; 100 µL) containing 30 mg/mL D-Luciferin (Perkin Elmer, Wellesley, MA, USA) was injected intraperitoneally in the animals and the bioluminescence was quantified using an In Vivo Imaging System (Perkin Elmer, Wellesley, MA, USA) according to the manufacturer’s instructions. Tumor volume (V = L × l2 × 0.52) was determined with a caliper and the endpoint was determined as a tumor volume of 1000 mm^3. […] The mice were sacrificed when the tumor reached 1000 mm^3. […]
as §4
Tumor samples were recovered from the animals and embedded in the OCT compound according to the manufacturer’s protocol (Thermo Fisher Scientific Inc., Waltham, MA, USA). […] All the images were then quantified with the CellProfiler 3.0 software.

HDF = assay: MTT assay, 48 h exposure, human dermal fibroblasts; format: cell-based; settings: Table 3, mean ± SEM
Procedure: as §1

[8] = axitinib 50 mg/kg, etoposide 30 mg/kg, combination 25 + 15 mg/kg

Structure (SMILES) | IC50 (C8-D1A; Mus musculus, C8-D1A) [µM] | IC50 (DAOY [1]; Homo sapiens, Daoy) [µM] | IC50 (HD-MB03 [2]; Homo sapiens, HD-MB03) [µM] | IC50 (D458; Homo sapiens) [µM] | reduction of proliferation of MB cells (MB cells) | long-term proliferation (CPD) of DAOY cells (DAOY [3]) | long-term proliferation (CPD) of HD-MB03 cells (HD-MB03 [4]) | size of mixed spheroids [5] | number of CD31-positive and αSMA-positive double-stained structures (vessels covered with pericytes) ([6]; metronomic oral treatment) | survival of mice with intracranial tumors ([6]; oral, five times a week, axitinib 50 mg/kg, etoposide 30 mg/kg, combination 25 + 15 mg/kg) | number of endothelial cells (CD31-positive) and/or pericytes/cancer-associated fibroblasts (αSMA-positive) [7] | median time to reach the endpoint volume (1000 mm^3) [7, 8] [days] | range of time to reach the endpoint volume (1000 mm^3) [7, 8] [days] | tumor growth (lognormal mathematical modelling) (subcutaneous DAOY tumors) | IC50 (HDF) [µM] | IC50 (C8-D1A) [µM] | IC50 (DAOY [1]) [µM] | IC50 (HD-MB03 [2]) [µM] | IC50 (D458) [µM]
COc1cc([C@@H]2c3cc4c(cc3[C@@H](O[C@@H]3O[C@@H]5CO[C@@H](C)O[C@H]5[C@H](O)[C@H]3O)[C@H]3COC(=O)[C@H]23)OCO4)cc(OC)c1O [Etoposide, etoposide] | 2.2 ± 0.6 | 0.2 | 0.09 ± 0.006 | 0.52 ± 0.15 | more than 80% | strongly impaired their proliferation | strongly impaired their proliferation | strong decrease in the size of spheroids | decreased the number | no significant effect on survival | did not impact | 18 | 11 to 60 | decreased tumor growth rates | – | – | – | – | –
N.N.O=C([O-])C1(C(=O)[O-])CCC1.[Pt+2] [Carboplatin, carboplatin] | – | – | – | – | – | – | – | – | – | – | – | – | – | – | > 20 | > 20 | > 20 | > 20 | > 20
